Reference: ChEMBL document CHEMBL1154508, “Discovery of GSK345931A: An EP(1) receptor antagonist with efficacy in preclinical models of inflammatory pain” (Bioorg Med Chem Lett, 2009)

How the values were obtained:
[1] = molecular target: T1, Prostaglandin E2 receptor EP1 subtype (Homo sapiens, UniProt P34995); assay: Binding affinity to EP1 receptor
T1 sequence (P34995 whole entry): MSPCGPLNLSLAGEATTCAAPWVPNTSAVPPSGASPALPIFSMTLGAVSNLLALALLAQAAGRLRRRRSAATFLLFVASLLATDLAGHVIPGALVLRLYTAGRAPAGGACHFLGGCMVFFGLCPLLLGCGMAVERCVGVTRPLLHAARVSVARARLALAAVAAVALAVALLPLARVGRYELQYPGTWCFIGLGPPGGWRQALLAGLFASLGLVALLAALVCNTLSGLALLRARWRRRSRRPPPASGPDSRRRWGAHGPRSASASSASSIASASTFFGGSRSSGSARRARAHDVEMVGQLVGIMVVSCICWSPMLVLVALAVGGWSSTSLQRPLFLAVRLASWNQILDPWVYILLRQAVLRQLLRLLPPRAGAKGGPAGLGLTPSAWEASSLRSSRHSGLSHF

Cytochrome P450 1A2 = molecular target: T2, Cytochrome P450 1A2 (Homo sapiens, UniProt P05177); assay: Inhibition of CYP1A2; format: ADME
T2 sequence (P05177 whole entry): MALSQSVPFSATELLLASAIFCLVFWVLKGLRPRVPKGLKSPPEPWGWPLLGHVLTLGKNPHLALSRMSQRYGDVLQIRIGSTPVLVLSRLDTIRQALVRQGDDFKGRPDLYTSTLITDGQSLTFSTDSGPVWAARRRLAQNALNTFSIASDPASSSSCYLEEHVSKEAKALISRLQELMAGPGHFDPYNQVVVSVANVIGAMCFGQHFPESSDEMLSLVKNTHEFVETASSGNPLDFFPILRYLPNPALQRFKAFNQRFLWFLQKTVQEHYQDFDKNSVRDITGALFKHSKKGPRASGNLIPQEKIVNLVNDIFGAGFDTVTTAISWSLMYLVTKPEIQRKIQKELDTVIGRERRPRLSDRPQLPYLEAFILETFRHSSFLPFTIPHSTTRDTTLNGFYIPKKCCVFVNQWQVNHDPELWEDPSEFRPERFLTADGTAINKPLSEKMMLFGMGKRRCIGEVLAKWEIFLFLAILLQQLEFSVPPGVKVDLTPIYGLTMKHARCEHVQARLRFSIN

Cytochrome P450 2C9 = Cytochrome P450 2C9 (Homo sapiens, UniProt P11712); assay: Inhibition of CYP2C9; format: ADME
[2] = Ratio of drug level in rat brain to blood at 0.28 mg/kg/hr, iv for 18 hrs at steady state; format: ADME, organism-based; set-up: route intravenous
Cytochrome P450 3A4 = Cytochrome P450 3A4 (Homo sapiens, UniProt P08684); assay: Inhibition of CYP3A4; format: ADME
Cytochrome P450 2D6 = Cytochrome P450 2D6 (Homo sapiens, UniProt P10635); assay: Inhibition of CYP2D6; format: ADME
Cytochrome P450 2C19 = Cytochrome P450 2C19 (Homo sapiens, UniProt P33261); assay: Inhibition of CYP2C19; format: ADME
Liver microsomes [3] = assay: Metabolic stability assessed as intrinsic clearance per gram of rat liver microsomes; format: ADME, Microsome
[4] = molecular target: T1, Prostaglandin E2 receptor EP1 subtype; assay: Antagonist activity at EP1 receptor assessed as calcium mobilization by FLIPR assay; format: functional
Liver microsomes [5] = assay: Metabolic stability assessed as intrinsic clearance per gram of human liver microsomes; format: ADME, Microsome

Cytochrome P450 3A4, sequence (P08684 whole entry): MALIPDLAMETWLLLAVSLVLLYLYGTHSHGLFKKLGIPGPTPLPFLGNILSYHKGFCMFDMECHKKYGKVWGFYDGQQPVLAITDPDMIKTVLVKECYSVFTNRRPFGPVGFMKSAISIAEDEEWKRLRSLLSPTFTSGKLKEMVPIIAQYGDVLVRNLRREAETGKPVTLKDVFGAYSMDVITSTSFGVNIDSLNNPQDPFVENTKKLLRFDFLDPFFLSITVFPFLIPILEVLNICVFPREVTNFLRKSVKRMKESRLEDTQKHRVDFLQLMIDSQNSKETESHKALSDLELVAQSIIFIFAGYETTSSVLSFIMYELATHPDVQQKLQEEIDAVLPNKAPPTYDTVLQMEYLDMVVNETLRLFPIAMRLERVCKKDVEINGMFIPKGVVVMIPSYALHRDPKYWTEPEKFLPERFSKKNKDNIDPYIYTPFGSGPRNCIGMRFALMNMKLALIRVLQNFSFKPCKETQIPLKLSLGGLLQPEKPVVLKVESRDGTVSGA
Cytochrome P450 2C9, sequence (P11712 whole entry): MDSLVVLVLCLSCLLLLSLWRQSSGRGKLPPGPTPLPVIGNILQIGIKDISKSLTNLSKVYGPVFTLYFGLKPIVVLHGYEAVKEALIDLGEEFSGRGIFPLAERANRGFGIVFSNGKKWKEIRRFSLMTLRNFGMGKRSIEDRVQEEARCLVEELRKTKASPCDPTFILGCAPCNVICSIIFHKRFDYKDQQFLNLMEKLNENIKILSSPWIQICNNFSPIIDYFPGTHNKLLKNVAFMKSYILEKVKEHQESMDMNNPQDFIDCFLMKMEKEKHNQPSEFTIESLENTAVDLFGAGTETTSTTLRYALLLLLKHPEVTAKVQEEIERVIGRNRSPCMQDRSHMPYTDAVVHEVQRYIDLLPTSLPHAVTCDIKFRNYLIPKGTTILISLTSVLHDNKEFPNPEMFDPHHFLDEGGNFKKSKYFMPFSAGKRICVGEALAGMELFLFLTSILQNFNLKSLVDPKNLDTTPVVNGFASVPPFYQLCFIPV
Cytochrome P450 2C19, sequence (P33261 whole entry): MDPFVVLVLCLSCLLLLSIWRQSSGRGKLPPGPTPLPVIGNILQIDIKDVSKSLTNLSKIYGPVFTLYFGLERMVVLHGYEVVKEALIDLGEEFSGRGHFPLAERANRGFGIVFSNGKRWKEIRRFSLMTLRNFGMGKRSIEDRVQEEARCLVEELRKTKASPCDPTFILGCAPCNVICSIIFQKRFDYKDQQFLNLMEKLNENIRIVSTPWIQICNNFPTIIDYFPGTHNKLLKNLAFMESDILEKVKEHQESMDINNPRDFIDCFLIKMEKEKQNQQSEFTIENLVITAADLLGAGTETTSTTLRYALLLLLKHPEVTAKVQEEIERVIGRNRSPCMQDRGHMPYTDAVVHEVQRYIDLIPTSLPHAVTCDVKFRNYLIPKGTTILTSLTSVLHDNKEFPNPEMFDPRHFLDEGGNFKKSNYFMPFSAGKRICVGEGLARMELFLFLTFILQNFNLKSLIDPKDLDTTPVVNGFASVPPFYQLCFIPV
Cytochrome P450 2D6, sequence (P10635 whole entry): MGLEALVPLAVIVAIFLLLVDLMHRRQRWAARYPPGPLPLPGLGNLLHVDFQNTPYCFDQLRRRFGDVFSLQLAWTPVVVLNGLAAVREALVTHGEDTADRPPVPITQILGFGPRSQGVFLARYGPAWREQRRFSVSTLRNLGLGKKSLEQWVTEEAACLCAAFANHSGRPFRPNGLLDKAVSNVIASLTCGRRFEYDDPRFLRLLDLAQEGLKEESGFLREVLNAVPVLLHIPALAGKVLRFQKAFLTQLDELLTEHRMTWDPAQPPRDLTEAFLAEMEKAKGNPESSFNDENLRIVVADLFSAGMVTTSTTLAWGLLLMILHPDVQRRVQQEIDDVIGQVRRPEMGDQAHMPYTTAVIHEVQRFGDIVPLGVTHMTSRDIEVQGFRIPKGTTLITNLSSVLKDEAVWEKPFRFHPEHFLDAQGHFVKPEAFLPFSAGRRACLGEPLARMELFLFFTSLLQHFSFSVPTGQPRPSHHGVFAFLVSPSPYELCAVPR

Compound | IC50 [1] [µM] | further results
O=C(O)c1cc(-c2ccccc2-c2ccccc2OCc2ccccc2)ccc1Cl | 0.126 | –
O=C(O)c1cccc(-c2ccccc2-c2ccc(Cl)cc2OCc2ccccc2)c1 | 0.316 | –
O=C(O)c1cccc(-c2ccccc2-c2cc(Cl)ccc2OCC2CCCC2)n1 | 0.158 | –
O=C(O)c1cccc(C2=C(c3cc(Cl)ccc3OCc3ccc(F)cc3F)CCC2)n1 | – | IC50 (Cytochrome P450 1A2): > 100 µM; IC50 (Cytochrome P450 2C9): 25 µM; Kp at 18 h [2]: 0.2; IC50 (Cytochrome P450 3A4): 89 µM; IC50 (Cytochrome P450 2D6): > 100 µM; IC50 (Cytochrome P450 2C19): 62 µM
COCC(=O)Nc1cc(C(=O)O)cc(-c2ccccc2-c2cc(Cl)ccc2OCc2ccccc2)c1 | 0.00398 | –
CCCOc1ccc(Cl)cc1-c1ccccc1-c1cccc(C(=O)O)n1 | 0.251 | –
Cc1ccc(-c2cc(Cl)ccc2OCc2ccccc2)c(-c2cccc(C(=O)O)c2)c1 | > 1 | –
O=C(O)c1cccc(-c2ccccc2-c2cc(Cl)ccc2OCc2ccc(F)cc2F)n1 | 0.00398 | –
CCC(=O)Nc1cc(C(=O)O)cc(-c2ccccc2-c2cc(Cl)ccc2OCc2ccccc2)c1 | 0.00631 | –
CCCC(=O)Nc1cc(C(=O)O)cc(-c2ccccc2-c2cc(Cl)ccc2OCc2ccccc2)c1 | 0.002 | –
O=C(O)c1cccc(-c2ccccc2-c2cc(Cl)ccc2OCc2ccc(F)cc2Cl)n1 | 0.0631 | –
O=C(O)c1cc(F)cc(-c2ccccc2-c2ccccc2OCc2ccccc2)c1 | 0.0631 | –
O=C(O)c1cccc(-c2ccccc2-c2cc(Cl)ccc2OCc2ccccc2)c1 | – | CL (Liver microsomes [3]): <= 0.5 ml/min/g; Ki [4]: 0.0316 µM; CL (Liver microsomes [5]): < 0.5 mL/min/g
O=C(O)c1cccc(-c2ccccc2-c2cc(Cl)ccc2OCc2ccc(F)cc2)n1 | 0.00501 | –
O=C(O)c1cccc(-c2ccccc2-c2ccccc2OCc2ccccc2)c1 | 0.02 | –
CC(=O)Nc1cc(C(=O)O)cc(-c2ccccc2-c2cc(Cl)ccc2OCc2ccccc2)c1 | 0.01 | –
O=C(O)c1cccc(-c2ccccc2-c2cc(Cl)ccc2OCc2c(F)cc(F)cc2F)n1 | 0.0126 | –
O=C(O)c1ccc(-c2ccccc2-c2cc(Cl)ccc2OCc2ccccc2)cc1 | 0.794 | –
Cc1cccc(-c2cc(Cl)ccc2OCc2ccccc2)c1-c1cccc(C(=O)O)c1 | 0.1 | –
O=C(O)c1ccc(F)c(-c2ccccc2-c2ccccc2OCc2ccccc2)c1 | 0.0794 | –
Cc1ccc(-c2cccc(C(=O)O)c2)c(-c2cc(Cl)ccc2OCc2ccccc2)c1 | > 1 | –
O=C(O)c1cccc(-c2ccccc2-c2cc(Cl)ccc2OCc2ccc(Br)cc2F)n1 | 0.0501 | –
Cc1c(C(=O)O)cccc1-c1ccccc1-c1ccccc1OCc1ccccc1 | 0.501 | –
O=C(O)c1cccc(-c2ccccc2-c2cc(Cl)ccc2OCc2ccc(Cl)cc2F)n1 | 0.02 | –
O=C(O)c1cccc(-c2cc(Cl)ccc2-c2cc(Cl)ccc2OCc2ccccc2)c1 | > 1 | –
CCCCOc1ccc(Cl)cc1-c1ccccc1-c1cccc(C(=O)O)n1 | 0.1 | –
O=C(O)c1cccc(-c2ccccc2-c2cc(Cl)ccc2OCc2ccccc2)n1 | 0.01 | –
CC(C)C(=O)Nc1cc(C(=O)O)cc(-c2ccccc2-c2cc(Cl)ccc2OCc2ccccc2)c1 | 0.01 | –
O=C(O)c1ccccc1-c1ccccc1-c1cc(Cl)ccc1OCc1ccccc1 | 0.02 | –
O=C(O)c1cccc(-c2ccccc2-c2cc(Cl)ccc2OCc2ccccc2F)n1 | 0.0398 | –
